Assay results published in US20210155905A1, “Method for Obtaining Haploid Cells” (Centre National de la Recherche Scientifique (CNRS), priority 2017, published 2021).
Entries after “also recorded” stand apart in the source; their conditions may differ.

How the values were obtained:
3T3 cells [1] = test: FACS DNA content: appearance of the 1C (sub-G1) cell population 20 hours after release from G0; format: cell-based, mouse; details: ΔDboxGeminin-expressing cells, 9 μM RO-3306 upon G0/G1 release
Procedure: (§1) FIG. 31 represents FACS profiles showing the DNA content (propidium iodide staining) of 3T3 cells 20 hours after release from G0 in the presence (+ΔDboxGem) or not (−ΔDboxGem) of doxycycline alone (CTRL—first column) or combined with RO-3306 treatment (a CDK1 inhibitor that prevents mitotic entry second column) or after UV treatment (performed upon release to induce DNA damage; third column).
For PI, BrdU/PI and ^ser10PH3/PI experiments, cells were fixed in cold 70% Ethanol/PBS and then processed for indirect immunofluorescence, as described above. To detect cyclin B1/PI, MPM2/PI and FLAG/PI, cells were fixed in 3% PFA in PBS at RT for 15 min, permeabilized in 0.5% Triton X-100 for 5 min and processed for indirect immunofluorescence. For DNA staining, cells were treated with 50 μg·mL^−1 RNase A (Sigma, R6513) and stained with 25 μg·mL^−1 propidium iodide.
(§2) To express CDT1, 3T3 cells were transfected with 5 μg of plasmid pCDNA3-CDT1 or empty vector using Nucleofector TN II; Amaxa Biosystem; AAD-1001N. To induce DNA damage, synchronized cells were exposed to UV (0.002 joules) using the Bioblock Scientific BLX-254 upon release or incubated with 2 mM hydroxyurea for 20 hours. To block mitotic progression, 9 μM RO-3306 was added in the medium upon G0/G1 release.

3T3 cells [2] = test: Western blotting of cleaved caspase 3 (apoptosis); format: cell-based, mouse; details: synchronized cells, hydroxyurea for 20 hours
Procedure: as §1
FIG. 32 is a control western blot used as control of the experiment of FIG. 31. […] A: next G1, B: HU and C: U.V. C3*: cleaved caspase 3 and H3: histone H3.
as §2
To prepare total cell extracts, cells were harvested, washed twice with PBS, lysed in 2× Laemmli buffer, sonicated (3×30 seconds) and boiled for 5 min. To obtain chromatin-enriched fractions, a protocol adapted from Lutzmann et al. [Lutzmann et al. 2012 Molecular Cell, 47, 523-534] was used. […]

| Structure (SMILES) | appearance of the 1C DNA content cell population (3T3 cells [1]) | apoptosis (cleaved caspase 3) (3T3 cells [2]) |
| --- | --- | --- |
| O=C1NC(=NCc2cccs2)S/C1=C\c1ccc2ncccc2c1 [RO-3306] | prevented mitotic entry and the appearance of the 10 DNA cell population; also recorded: totally prevented their appearance |  |
| NC(=O)NO [hydroxyurea] |  | did not induce detectable apoptosis |
